Experimental data: publication PMC10065799, “High-throughput profiling of sequence recognition by tyrosine kinases and SH2 domains using bacterial peptide display” (eLife, 2023)
Like-named read-outs stand apart in the source and are kept apart here.

Legend:
Test in all cases: pTyr-Var library bacterial peptide display kinase screen (enrichment scores)
[1] = biological target: c-Src kinase domain (Homo sapiens, UniProt P12931); type: biochemical;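 note: log2 fold change in enrichment of variant over reference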
[2] = system: Fer kinase domain; type: biochemical, mouse; settings: sheet "Fer";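 note: log2 fold change in enrichment of variant over reference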
[3] = system: EPHB2 kinase domain; type: biochemical, human; settings: sheet EPHB2;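 note: log2 fold change in enrichment of variant over reference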
[4] = system: EPHB1 kinase domain; type: biochemical, human; settings: for Screen: sheet EPHB1, effect of the variant peptide relative to its reference peptide in the pTyr-Var library screen (enrichment scores); for Screen (variant relative to reference peptide, measured in the pTyr-Var library screen): sheet "EPHB1", variant seq vs reference seq, bacterial peptide display enrichment
[5] = biological target: T1, c-Abl kinase domain (Mus musculus, UniProt P00520); type: biochemical;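 note: log2 fold change in enrichment of variant over reference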
T1 sequence (P00520 242-493 limits assumed): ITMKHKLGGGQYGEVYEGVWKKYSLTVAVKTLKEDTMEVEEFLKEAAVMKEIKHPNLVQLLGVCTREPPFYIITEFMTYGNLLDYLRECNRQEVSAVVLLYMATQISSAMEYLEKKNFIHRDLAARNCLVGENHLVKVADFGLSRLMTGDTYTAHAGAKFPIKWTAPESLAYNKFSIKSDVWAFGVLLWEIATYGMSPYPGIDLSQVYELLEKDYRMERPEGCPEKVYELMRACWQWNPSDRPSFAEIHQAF

[6] = sheet "Src", effect of the variant peptide relative to its reference peptide in the pTyr-Var library screen
[7] = value of the variant peptide against its reference peptide in the pTyr-Var library screen with Fer
[8] = effect of variant peptide relative to its reference peptide in the pTyr-Var library screen (enrichment scores)
[9] = sheet "Src", variant peptide versus its reference peptide in the pTyr-Var library screen
[10] = variant peptide relative to its reference peptide, pTyr-Var library screen enrichment
[11] = fig5-data2, sheet "Abl", Screen for the variant/reference peptide pair, pTyr-Var library
[12] = sheet "Abl", effect of variant peptide relative to its reference peptide in pTyr-Var library screen (enrichment)

Which results are given for MKDLTYSSLCF [ALOX5_Y446_A447S]?
Screen [1, 6]: 0.1056; Screen [2, 7]: 1.165; Screen [3, 8]: 0.3665; Screen [4]: 0.1163

RRIHSYRRHLW [VHL_Y112_G114R] was tested. Which Screen [1, 9] did it give?
The Screen was -2.73.

And the “Screen (variant relative to reference peptide, measured in the pTyr-Var library screen)” value [4]?
The value was -1.158.

Which Screen [1, 6] does the source give for HNVAIYEGFAL [ACTC1_Y168_P166A_YF] here?
The Screen was -0.2279.

What about the Screen [2, 7] of the same sequence?
The Screen was -0.3735.

What about the Screen [3, 8] of the same sequence?
Its Screen is -1.285.

And the Screen [4]?
The Screen was -1.018.

Which Screen [2, 10] does the source give for HLMLQYDAVVN [SLC25A32_Y152_R147H] here?
The Screen was 1.415.

And the Screen [3, 8]?
The Screen was 1.051.

MAPQMYESHLP [NCAPD2_Y6_F8S] was tested. Which Screen [2, 7] did it give?
Its Screen is -1.098.

What about the Screen [3, 8] of the same sequence?
The Screen was -2.267.

And the Screen [4]?
Its Screen is -3.091.

For LGSVVYAQSKE [KCNQ2_Y226_H228Q], which Screen [4] is on record?
The Screen was 1.461.

How did the Screen [1, 6] turn out when ASFSLYEPAKM [MKI67_Y340_P338S] was run?
The Screen was -1.253.

And the Screen [2, 7]?
The Screen was -0.8096.

What about the Screen [3, 8] of the same sequence?
The Screen was -1.997.

What about the Screen [4] of the same sequence?
Its Screen is -1.581.

With DNKALYDICFR [TUBB3_Y208_E205K] as the sequence, how does the Screen [1, 9] read?
The Screen was -0.8548.

What about the Screen [2, 10] of the same sequence?
The Screen was -1.219.

What about the Screen ([3]; effect of the variant relative to its reference peptide in the pTyr-Var library screen) of the same sequence?
Its Screen is -1.114.

What about the “Screen (variant relative to reference peptide, measured in the pTyr-Var library screen)” value [4] of the same sequence?
The value was -0.6777.

How did the Screen [1, 9] turn out when TTEHIYGDKFF [UBA7_Y524_N527K] was run?
Its Screen is 0.1479.

What about the Screen [2, 10] of the same sequence?
Its Screen is -2.246.

Which Screen [4] does the source give for HRNNNYEPNLF [BRCA2_Y57_K53R] here?
The Screen was -0.3671.

FSIDFYRVGGH [NTRK2_Y707_T704I_YF] was tested. Which Screen [5, 11] did it give?
Its Screen is -1.897.

With IEPCIYIPEDD [XPNPEP3_Y455_G453C] as the sequence, how does the Screen [5, 12] read?
The Screen was -2.393.

For GSESDYIIMPN [SCARB1_Y133_V135I], which Screen [3, 8] is on record?
Its Screen is -0.2465.

And the “Screen (variant relative to reference peptide, measured in the pTyr-Var library screen)” value [4]?
Its value is -0.2975.

How did the Screen [3, 8] turn out when TSIGNYFKPWF [DHCR24_Y299_N294T_YF] was run?
Its Screen is -0.167.

What about the Screen [4] of the same sequence?
The Screen was 0.02902.

Which Screen [1, 6] does the source give for MGGSLYFSFPD [HIKESHI_Y55_V54L_YF] here?
The Screen was 0.1907.

What about the Screen [3, 8] of the same sequence?
The Screen was 2.441.

And the Screen [4]?
Its Screen is 2.816.

With KMKGDYFRSLA [YWHAG_Y130_Y133S_YF] as the sequence, how does the Screen [1, 9] read?
The Screen was -2.206.

And the Screen [5, 12]?
Its Screen is -4.108.

With SAAAIYMVRHP [PMP22_Y117_T118M] as the sequence, how does the Screen [1, 9] read?
Its Screen is -0.2351.

And the Screen [3, 8]?
The Screen was 1.843.

And the Screen [4]?
Its Screen is 2.191.

For DAHFTYSRFPW [LY75_Y888_D884A_YF], which Screen [1, 6] is on record?
Its Screen is 0.1806.

And the Screen [3, 8]?
The Screen was -0.5554.

What about the Screen [4] of the same sequence?
The Screen was -0.9728.

LQEQNYPAVDS [FAM114A1_Y115_L116P] was tested. Which Screen [2, 7] did it give?
Its Screen is -1.861.

What about the Screen [3, 8] of the same sequence?
Its Screen is -0.9591.

What about the Screen [4] of the same sequence?
Its Screen is -2.139.

What does the source list for DFFDLYGGEKL [PTPN11_Y66_F71L_YF]?
Screen [1, 9]: 0.4429; Screen [5, 11]: -1.348

Which Screen [4] does the source give for NRLTDYFELLL [BBS10_Y536_P539L_YF] here?
The Screen was -2.013.

How did the Screen [5, 11] turn out when ERIEFYELNKK [PMM2_Y145_D148N] was run?
The Screen was -0.6166.

Which results are given for PEAALYGRFTF [FYN_Y440_I445F]?
Screen [1, 6]: 0.2008; Screen [2, 7]: 0.7423

TENAGYFFRIS [TTN_Y31721_V31725I_YF] was tested. Which Screen [5, 12] did it give?
Its Screen is -1.38.

Which Screen [5, 12] does the source give for KDQPDYKFQPR [SOX9_Y172_H169Q_YF] here?
The Screen was -0.1662.

VVTGPYEKPSL [KIR3DS1_Y221_L220P] was tested. Which Screen [2, 7] did it give?
The Screen was -4.323.

What about the Screen [3, 8] of the same sequence?
The Screen was -3.858.

And the Screen [4]?
The Screen was -2.822.

Which Screen [5, 11] does the source give for LLQAEYWHDPI [PPT1_Y185_V181L] here?
Its Screen is 0.8908.

QNKEDYDGLKE [GSTO1_Y139_A140D] was tested. Which Screen [2, 7] did it give?
The Screen was -0.3459.

Which Screen [5, 11] does the source give for MIHSAYALGGL [CPS1_Y590_R587H] here?
The Screen was -0.66.

For CPPKVYELMIA [ABL2_Y515_R519I], which Screen [1] is on record?
Its Screen is 0.5796.

What about the Screen [2, 7] of the same sequence?
The Screen was 0.2175.

And the Screen [3, 8]?
The Screen was -0.0581.

What about the Screen [4] of the same sequence?
Its Screen is -0.2414.

For KRRGPYEMSPS [PLPP7_Y172_T174M], which Screen [5, 11] is on record?
Its Screen is -0.6744.

Which Screen [5, 11] does the source give for IGHGSYAKVLL [PRKCZ_Y263_R260H] here?
The Screen was 0.1947.

For PRIHSYRGHLW [VHL_Y112_R107P], which Screen [1, 9] is on record?
The Screen was -2.322.

What about the “Screen (variant relative to reference peptide, measured in the pTyr-Var library screen)” value [4] of the same sequence?
The value was -0.7646.

Which Screen [3, 8] does the source give for MWGSDYVHLSR [MAP3K4_Y582_Q584H] here?
Its Screen is -2.255.

And the Screen [4]?
The Screen was -1.547.

Which Screen [1, 9] does the source give for LVKDPYVMFPQ [PLEKHG2_Y489_P484L] here?
Its Screen is 0.6915.

And the Screen [5, 11]?
The Screen was 1.829.

With GFILMYDITNK [RAB3C_Y110_E115K] as the sequence, how does the Screen [3, 8] read?
Its Screen is -0.5126.

How did the Screen [5, 11] turn out when FLAVGYHKPRI [IDS_Y225_H229R] was run?
Its Screen is -0.1841.
